The numbers were not newly measured in patent US20070112055A1, “Crystalline forms of almotriptan and processes for their preparation” (Glenmark Pharmaceuticals Limited, priority 2005, published 2007), which cites them from elsewhere.

In one data set the target is T1, 5-HT1A receptors (Homo sapiens, UniProt P08908).
T1 sequence (P08908 1-422): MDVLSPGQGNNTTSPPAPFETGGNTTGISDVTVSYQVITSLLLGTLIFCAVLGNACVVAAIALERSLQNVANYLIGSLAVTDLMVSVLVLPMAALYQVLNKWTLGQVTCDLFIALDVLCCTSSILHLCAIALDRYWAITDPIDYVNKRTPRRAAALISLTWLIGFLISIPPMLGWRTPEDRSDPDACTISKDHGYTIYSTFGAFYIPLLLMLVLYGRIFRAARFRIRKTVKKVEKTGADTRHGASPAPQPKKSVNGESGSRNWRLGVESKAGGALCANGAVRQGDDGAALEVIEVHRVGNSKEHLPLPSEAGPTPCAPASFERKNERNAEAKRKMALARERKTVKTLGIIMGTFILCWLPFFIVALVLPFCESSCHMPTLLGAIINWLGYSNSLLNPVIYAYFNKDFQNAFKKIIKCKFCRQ
The settings on record: general statement of the related art.

For a further data set, the target named is 5-HT1B receptors (Homo sapiens, UniProt P28222). The settings on record: general statement of the related art.
The target in the next data set is 5-HT1D receptors (Homo sapiens, UniProt P28221). Particulars: general statement of the related art.
A further data set concerns the target T2, 5-HT1F receptors (Homo sapiens, UniProt P30939).
T2 sequence (P30939 1-366): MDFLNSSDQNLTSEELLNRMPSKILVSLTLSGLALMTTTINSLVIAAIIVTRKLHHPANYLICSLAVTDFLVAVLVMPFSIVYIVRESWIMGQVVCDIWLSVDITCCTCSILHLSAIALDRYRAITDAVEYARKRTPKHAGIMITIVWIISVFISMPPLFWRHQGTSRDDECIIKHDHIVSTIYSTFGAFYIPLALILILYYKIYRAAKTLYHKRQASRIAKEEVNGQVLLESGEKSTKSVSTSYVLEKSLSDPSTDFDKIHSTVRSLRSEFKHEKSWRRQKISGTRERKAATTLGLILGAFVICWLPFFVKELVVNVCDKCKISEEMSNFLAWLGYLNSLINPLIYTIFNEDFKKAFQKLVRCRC
Particulars: general statement of the related art.

The next data set addresses 5-HT7 receptors (Homo sapiens, UniProt P34969). The settings on record: general statement of the related art.
The conditions of data set [1]: amorphous form compared with the crystalline forms.

Sequence of 5-HT1B receptors (P28222 whole entry): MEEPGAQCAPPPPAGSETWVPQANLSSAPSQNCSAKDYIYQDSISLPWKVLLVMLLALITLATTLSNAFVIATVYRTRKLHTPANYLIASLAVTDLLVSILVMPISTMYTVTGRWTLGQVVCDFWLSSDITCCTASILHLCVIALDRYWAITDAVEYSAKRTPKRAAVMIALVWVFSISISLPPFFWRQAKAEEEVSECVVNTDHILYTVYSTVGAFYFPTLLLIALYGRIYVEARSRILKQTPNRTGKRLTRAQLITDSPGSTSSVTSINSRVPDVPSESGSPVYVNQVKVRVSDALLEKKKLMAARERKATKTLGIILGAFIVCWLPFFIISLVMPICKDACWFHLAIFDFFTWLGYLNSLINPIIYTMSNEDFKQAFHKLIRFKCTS
Sequence of 5-HT1D receptors (P28221 whole entry): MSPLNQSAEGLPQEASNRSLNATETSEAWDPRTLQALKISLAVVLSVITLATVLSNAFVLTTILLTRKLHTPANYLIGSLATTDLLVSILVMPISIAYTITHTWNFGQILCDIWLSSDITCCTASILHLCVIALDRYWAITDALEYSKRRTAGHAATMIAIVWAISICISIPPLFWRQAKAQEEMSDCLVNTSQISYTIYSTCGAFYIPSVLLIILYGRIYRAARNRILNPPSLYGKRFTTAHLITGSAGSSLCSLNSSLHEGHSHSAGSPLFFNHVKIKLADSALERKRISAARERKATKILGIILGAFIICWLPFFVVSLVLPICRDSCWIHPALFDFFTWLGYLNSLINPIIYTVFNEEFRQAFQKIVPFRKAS
Sequence of 5-HT7 receptors (P34969 whole entry): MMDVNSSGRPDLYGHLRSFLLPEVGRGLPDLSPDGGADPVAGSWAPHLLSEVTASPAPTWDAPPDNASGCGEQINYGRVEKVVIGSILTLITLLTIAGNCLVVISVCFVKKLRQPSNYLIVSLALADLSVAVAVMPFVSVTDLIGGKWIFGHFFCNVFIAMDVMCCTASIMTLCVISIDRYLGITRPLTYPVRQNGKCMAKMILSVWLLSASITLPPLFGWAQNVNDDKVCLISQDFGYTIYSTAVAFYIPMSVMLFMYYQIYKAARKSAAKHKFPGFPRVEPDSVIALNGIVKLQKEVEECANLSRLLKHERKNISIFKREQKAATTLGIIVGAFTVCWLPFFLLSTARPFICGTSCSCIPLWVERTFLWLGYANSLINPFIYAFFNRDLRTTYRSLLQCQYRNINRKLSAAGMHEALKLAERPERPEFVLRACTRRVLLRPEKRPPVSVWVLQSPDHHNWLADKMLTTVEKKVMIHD

Consider `CN(C)CCc1c[nH]c2ccc(CS(=O)(=O)N3CCCC3)cc12` [Almotriptan, 1-[[[3-[2-(dimethylamino)ethyl]indol-5-yl]methyl]sulfonyl]pyrrolidine], for which the “affinity for 5-HT1A receptors” value on 5-HT1A receptors is given as “weak affinity”. The “affinity to 5-HT1B receptors” value at 5-HT1B receptors was “high affinity”. Besides, the “affinity to 5-HT1D receptors” value on 5-HT1D receptors was “high affinity”. Moreover, at 5-HT1F receptors, the “affinity to 5-HT1F receptors” value is on record as “high affinity”. For the same compound, the “affinity for 5-HT7 receptors” value on 5-HT7 receptors was “weak affinity”.
Regarding `CO/N=C(\C(=O)N[C@@H]1C(=O)N2C(C(=O)OC(C)OC(C)=O)=C(COC(N)=O)CS[C@H]12)c1ccco1` (stereo partly drawn) [cefuroxime axietil], the bioavailability entry in data set [1] was “much higher bioavailability than the crystalline forms”.
